According to patent US9481709B2, “Boropeptide inhibitors of enteropeptidase and their uses in treatment of obesity, overweight and/or diseases associated with an abnormal fat metabolism” (OBE THERAPY BIOTECHNOLOGY, priority 2007, dated 2016):

How the values were obtained:
[1] = target: T1, Plasmin from human plasma (Homo sapiens, UniProt P00747); test: Plasmin assay; type: biochemical; conditions: in vitro
T1 construct: Plasmin from human plasma; purchased SIGMA P1867; host or cells: human plasma
Procedure: (§1) 2.2. Thrombin, Trypsin, Kallikrein, Plasmin, Chymotrypsin and Elastase Assay
(§2) Table IV below lists the final concentrations of the tested enzymes and the corresponding substrates, in the determination of the IC50 without inhibitor (positive control) and in inhibition protocols:
(§3) Measurement without Inhibitor (Positive Control)
(§4) In 17 μl of TN, 1 μl of enzyme and 2 μl of substrate was mixed, just before reading; The Absorbance was measured at 405 nm on EnVision (Perkin Elmer).
(§5) Inhibition in 384 Well Plate Small Volume ([…])
(§6) In 15 μl of TN, 1 μl of enzyme and 2 μl of Inhibitor (compound of the invention) at different concentrations were mixed and incubated at RT for 30 minutes; 2 μl of substrate was added, just before reading; The Absorbance was measured at 405 nm on EnVision (Perkin Elmer).

[2] = target: T2, Kallikrein from human plasma (Homo sapiens, UniProt P03952); test: Kallikrein assay; type: biochemical; conditions: in vitro
T2 construct: Kallikrein from human plasma; purchased SIGMA K2638; host or cells: human plasma
Procedure: as §1, §2, §3, §4, §5, §6

Enteropeptidase [3] = target: T3, Enteropeptidase (Homo sapiens, UniProt P98073); test: Enteropeptidase assay (Np Tosyl Gly Pro Arg pNa substrate, absorbance 405 nm); type: biochemical; design: purchased RD system 1585SE; conditions: in vitro, 30 min preincubation at RT
Procedure: 2.1. Enteropeptidase Assay
Activation of the Enteropeptidase
A mix of enteropeptidase at 58.8 nM (final) and thermolysine at 1.58 ng/I (final) in TCN buffer was prepared; the mix was incubated at 37° C. during 30 minutes for activation. Phosphoramidon (10 μM final) was added to stop the activation by thermolysine.
Measurement of Enteropeptidase Activity without Inhibitor (Positive Control)
In 17 μl of TCN, 1 μl of active enzyme (2.9 nm final) and 2 μl Np Tosyl Gly Pro Arg pNa (1 mM final) were mixed, just before reading. The Absorbance was measured at 405 nm on EnVision (Perkin Elmer).
as §5
Target sequence in this assay (P98073 785-1019 limits assumed): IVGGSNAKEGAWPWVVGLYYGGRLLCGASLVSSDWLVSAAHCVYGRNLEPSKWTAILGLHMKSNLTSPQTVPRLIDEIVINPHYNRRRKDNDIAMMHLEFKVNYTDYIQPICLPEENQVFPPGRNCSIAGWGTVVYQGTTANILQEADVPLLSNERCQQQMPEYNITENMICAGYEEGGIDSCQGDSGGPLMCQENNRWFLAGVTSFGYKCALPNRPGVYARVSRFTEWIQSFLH
Target sequence in this assay (P98073 2-784 partner limits assumed): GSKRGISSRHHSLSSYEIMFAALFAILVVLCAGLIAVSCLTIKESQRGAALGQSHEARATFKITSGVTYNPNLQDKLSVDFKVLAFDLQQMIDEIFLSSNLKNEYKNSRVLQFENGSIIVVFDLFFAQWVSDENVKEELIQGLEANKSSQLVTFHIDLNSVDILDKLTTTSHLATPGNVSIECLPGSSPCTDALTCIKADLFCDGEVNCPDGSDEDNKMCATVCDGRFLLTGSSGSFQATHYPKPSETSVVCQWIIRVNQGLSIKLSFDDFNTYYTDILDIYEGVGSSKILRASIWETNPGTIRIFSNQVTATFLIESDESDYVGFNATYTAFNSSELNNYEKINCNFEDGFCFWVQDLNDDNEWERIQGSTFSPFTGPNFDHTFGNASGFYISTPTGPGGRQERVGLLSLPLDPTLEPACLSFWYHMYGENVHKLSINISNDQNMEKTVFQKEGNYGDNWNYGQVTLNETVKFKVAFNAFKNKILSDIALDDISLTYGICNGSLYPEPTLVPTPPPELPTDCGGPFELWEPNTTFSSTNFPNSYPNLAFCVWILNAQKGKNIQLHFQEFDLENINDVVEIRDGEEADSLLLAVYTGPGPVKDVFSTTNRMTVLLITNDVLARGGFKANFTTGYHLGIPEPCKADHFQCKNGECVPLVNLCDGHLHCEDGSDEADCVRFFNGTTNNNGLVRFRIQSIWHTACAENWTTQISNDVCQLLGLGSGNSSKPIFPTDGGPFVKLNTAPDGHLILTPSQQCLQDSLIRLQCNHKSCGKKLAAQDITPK
In 15 μl of TCN, 1 μl of active enzyme and 2 μl of Inhibitor (compound of the invention) at different concentrations were mixed, and incubated at RT (room temperature) for 30 minutes; 2 μl Np Tosyl Gly Pro Arg pNa (1 mM final) was added just before reading. The Absorbance was measured at 405 nm on EnVision (Perkin Elmer).

Kallikrein = Kallikrein (Homo sapiens, UniProt P03952); test: Kallikrein
Text: (§7) Table printed on a drawing sheet, Fig. 5
Head of the field: Kallikrein
(§8) The patent's description of the figure: FIG. 5 is a Table showing the IC 50 (in nM) of enteropeptidase, various serine proteases and other enzyme families, in the presence of compounds OBE 1999, OBE 2000, OBE 2001 or OBE 2002.
(§9) First copying reader's note: Each column is one compound; each row gives its IC50 against the named enzyme.
Where the first naming reader finds the target: head: Kallikrein

Thrombin = Thrombin (Homo sapiens, UniProt P00734); test: Thrombin
Text: as §7
Head of the field: Thrombin
as §8, §9
Where the first naming reader finds the target: head: Thrombin

[4] = target: T4, Trypsin from human pancreas (Homo sapiens, UniProt P07477); test: Trypsin assay; type: biochemical; conditions: in vitro; range printed jointly for trypsin, kallikrein and plasmin
T4 construct: Trypsin from human pancreas; purchased SIGMA T6424; host or cells: human pancreas
Procedure: as §1, §2, §3, §4, §5, §6

Plasmin = Plasmin (Homo sapiens, UniProt P00747); test: Plasmin
Text: as §7
Head of the field: Plasmin
as §8, §9
Where the first naming reader finds the target: head: Plasmin

[5] = target: T5, Thrombin from human plasma (Homo sapiens, UniProt P00734); test: Thrombin assay; type: biochemical; conditions: in vitro
T5 construct: Thrombin from human plasma; purchased SIGMA T1063; host or cells: human plasma
Procedure: as §1, §2, §3, §4, §5, §6

Enteropeptidase [6] = target: T3, Enteropeptidase; test: Enteropeptidase
Text: as §7
Target sequence in this assay (P98073 2-1019): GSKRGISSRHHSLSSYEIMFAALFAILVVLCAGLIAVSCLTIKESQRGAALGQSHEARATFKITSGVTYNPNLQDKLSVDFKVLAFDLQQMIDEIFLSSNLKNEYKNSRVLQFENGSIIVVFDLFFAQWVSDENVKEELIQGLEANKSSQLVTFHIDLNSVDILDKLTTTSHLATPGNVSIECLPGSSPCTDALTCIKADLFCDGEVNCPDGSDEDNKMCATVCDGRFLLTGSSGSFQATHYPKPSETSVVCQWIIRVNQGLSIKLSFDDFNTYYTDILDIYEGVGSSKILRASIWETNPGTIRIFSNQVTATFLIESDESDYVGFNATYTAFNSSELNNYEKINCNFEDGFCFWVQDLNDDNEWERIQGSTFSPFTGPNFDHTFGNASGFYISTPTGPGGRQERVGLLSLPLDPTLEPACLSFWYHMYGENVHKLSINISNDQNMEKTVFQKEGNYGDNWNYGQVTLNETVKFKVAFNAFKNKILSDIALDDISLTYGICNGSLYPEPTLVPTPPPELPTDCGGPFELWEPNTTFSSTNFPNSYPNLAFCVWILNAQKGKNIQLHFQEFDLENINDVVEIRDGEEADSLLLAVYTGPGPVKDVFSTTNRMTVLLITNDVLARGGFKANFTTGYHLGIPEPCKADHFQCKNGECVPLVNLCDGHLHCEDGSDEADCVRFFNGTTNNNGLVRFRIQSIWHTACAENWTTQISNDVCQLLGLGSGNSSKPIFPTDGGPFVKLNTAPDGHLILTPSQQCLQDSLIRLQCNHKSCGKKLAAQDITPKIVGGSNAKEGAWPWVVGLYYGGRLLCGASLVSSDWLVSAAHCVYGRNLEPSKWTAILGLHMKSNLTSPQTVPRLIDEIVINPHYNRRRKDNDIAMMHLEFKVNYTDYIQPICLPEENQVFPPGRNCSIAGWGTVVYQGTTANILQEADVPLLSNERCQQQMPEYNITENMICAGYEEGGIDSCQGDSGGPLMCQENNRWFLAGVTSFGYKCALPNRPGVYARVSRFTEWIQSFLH
Head of the field: Enteropeptidase
as §8, §9
Where the first naming reader finds the target: head: Enteropeptidase

Trypsin = Trypsin (Homo sapiens, UniProt P07477); test: Trypsin
Text: as §7
Head of the field: Trypsin
as §8, §9
Where the first naming reader finds the target: head: Trypsin

T1 sequence (P00747 581-810 limits assumed): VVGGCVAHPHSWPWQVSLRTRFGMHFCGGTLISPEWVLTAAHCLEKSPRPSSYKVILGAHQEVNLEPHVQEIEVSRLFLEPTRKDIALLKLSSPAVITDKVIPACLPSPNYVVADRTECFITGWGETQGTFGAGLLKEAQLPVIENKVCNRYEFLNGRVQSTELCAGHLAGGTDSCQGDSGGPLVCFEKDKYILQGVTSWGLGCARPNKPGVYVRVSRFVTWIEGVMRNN
T1 sequence (P00747 98-580 partner limits assumed): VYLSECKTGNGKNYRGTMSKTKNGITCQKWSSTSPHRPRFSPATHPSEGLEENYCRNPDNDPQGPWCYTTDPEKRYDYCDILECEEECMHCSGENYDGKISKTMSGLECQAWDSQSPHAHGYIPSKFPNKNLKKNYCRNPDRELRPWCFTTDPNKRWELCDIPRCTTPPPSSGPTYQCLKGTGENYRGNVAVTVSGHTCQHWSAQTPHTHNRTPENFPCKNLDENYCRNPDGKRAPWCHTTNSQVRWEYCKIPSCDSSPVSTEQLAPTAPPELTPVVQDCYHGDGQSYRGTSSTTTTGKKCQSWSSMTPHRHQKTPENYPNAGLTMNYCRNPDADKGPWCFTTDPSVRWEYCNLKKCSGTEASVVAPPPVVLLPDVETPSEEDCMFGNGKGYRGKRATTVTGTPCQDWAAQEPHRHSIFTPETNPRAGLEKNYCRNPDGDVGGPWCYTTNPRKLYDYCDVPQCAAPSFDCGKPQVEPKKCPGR
T2 sequence (P03952 391-638 limits assumed): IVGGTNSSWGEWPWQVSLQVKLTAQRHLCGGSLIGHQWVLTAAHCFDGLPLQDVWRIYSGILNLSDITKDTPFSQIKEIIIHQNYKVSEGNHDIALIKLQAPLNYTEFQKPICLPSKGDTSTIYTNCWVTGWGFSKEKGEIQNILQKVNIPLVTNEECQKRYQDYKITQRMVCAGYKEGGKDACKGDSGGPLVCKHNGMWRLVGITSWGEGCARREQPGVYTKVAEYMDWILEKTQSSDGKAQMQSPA
T2 sequence (P03952 20-390 partner limits assumed): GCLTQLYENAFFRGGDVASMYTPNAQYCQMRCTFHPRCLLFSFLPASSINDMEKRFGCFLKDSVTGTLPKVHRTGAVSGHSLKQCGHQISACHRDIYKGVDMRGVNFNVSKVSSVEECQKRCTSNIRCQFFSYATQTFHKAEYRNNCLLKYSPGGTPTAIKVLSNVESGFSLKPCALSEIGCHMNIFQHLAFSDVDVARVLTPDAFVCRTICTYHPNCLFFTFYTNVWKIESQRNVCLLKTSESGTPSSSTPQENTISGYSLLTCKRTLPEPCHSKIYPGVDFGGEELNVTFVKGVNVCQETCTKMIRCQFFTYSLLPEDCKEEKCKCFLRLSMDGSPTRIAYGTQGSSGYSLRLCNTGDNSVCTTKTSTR
Sequence of Kallikrein (P03952 20-638): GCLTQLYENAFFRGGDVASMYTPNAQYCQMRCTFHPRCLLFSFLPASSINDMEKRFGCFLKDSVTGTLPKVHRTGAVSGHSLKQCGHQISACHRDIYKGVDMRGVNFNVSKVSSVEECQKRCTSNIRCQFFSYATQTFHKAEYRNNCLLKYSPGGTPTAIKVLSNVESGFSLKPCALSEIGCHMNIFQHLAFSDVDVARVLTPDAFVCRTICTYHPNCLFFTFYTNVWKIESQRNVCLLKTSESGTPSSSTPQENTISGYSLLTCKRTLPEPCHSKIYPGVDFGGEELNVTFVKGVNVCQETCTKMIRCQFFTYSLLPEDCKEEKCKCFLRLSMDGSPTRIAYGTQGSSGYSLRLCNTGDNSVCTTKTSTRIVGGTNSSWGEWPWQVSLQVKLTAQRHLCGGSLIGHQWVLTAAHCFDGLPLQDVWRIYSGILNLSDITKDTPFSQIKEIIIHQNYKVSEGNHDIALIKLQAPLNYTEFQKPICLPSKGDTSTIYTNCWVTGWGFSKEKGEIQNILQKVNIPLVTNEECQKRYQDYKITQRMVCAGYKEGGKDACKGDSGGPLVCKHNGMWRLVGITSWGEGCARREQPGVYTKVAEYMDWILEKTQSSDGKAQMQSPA
Sequence of Plasmin (P00747 97-810): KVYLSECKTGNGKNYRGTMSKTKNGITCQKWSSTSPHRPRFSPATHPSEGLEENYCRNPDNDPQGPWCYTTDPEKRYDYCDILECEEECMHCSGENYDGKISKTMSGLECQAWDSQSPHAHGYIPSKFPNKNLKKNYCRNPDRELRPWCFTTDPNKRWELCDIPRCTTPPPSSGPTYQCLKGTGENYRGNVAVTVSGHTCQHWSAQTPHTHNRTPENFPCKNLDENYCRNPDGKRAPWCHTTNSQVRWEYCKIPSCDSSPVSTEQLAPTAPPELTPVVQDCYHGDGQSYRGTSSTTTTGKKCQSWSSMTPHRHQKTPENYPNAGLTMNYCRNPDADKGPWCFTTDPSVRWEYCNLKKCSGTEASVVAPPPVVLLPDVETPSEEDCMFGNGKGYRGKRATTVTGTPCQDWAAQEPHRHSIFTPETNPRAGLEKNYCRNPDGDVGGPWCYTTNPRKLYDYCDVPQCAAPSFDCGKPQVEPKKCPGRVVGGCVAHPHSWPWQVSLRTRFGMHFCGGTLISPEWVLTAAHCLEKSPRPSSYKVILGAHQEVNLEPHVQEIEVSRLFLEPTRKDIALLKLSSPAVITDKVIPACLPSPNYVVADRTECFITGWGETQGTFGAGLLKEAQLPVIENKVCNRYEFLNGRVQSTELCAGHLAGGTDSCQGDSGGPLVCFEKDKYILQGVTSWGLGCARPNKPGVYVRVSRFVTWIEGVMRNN

Compound	IC50 [1] [nM]	IC50 [2] [nM]	IC50 (Enteropeptidase [3]) [nM]	IC50 (Kallikrein) [nM]	IC50 (Thrombin) [nM]	IC50 [4] [nM]	IC50 (Plasmin) [nM]	IC50 thrombin [5]	IC50 enteropeptidase (Enteropeptidase [3])	IC50 (Enteropeptidase [6]) [nM]	IC50 (Trypsin) [nM]	IC50 plasmin [1]	IC50 kallikrein [2]
C[C@H](N)C(=O)N[C@@H](Cc1ccccc1)C(=O)N[C@@H](CCCNC(=N)N)B1OC2C[C@@H]3C[C@@H](C3(C)C)[C@]2(C)O1 (stereo partly shown) [OBE1999]	7.5 to 29.8	7.5 to 29.8	33	7.5	6400	7.5 to 29.8	29.8	–	–	–	–	–	–
CC1(C)[C@@H]2CC3OB([C@H](CCCNC(=N)N)NC(=O)CNC(=O)[C@@H](N)CCC(=O)O)O[C@@]3(C)[C@H]1C2 (stereo partly shown) [OBE2000]	7100	260	–	–	3220	–	–	high value of IC50	low value of IC50	68	–	–	–
CC(=O)N[C@@H](CCC(=O)O)C(=O)NCC(=O)N[C@@H](CCCN=C(N)N)B(O)O [OBE2002, Acetyl-Glu-Gly-BoroArg]	–	–	–	81.4	–	–	3800	–	–	33.6	10.5	low IC50 value	low IC50 value
